Laboratory results published in patent publication US20230009626A1 (ICHNOS SCIENCES S.A., priority 2018, published 2023).
Blank lines part the entries; values can stand above or below the compound they belong to.

Biological target: HPK1 (MAP4K1) (Homo sapiens, UniProt Q92918)
Assay: FRET Assay for HPK1 (MAP4K1): one step binding assay, displacement of labeled tracer
Conditions: for inhibition at 1 µM: 1 μM compound; for inhibition at 1 µM / inhibition at 10 µM: FRET ratio 665/620, percent of control; for inhibition at 10 µM: 10 μM compound; for IC50: dose response curve, nonlinear regression
In short: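 TR-FRET tracer-displacement binding assay. GST-tagged HPK1 (10 nM) and Eu-anti-GST antibody (4 nM) were pre-incubated with compound on ice for 15 min in 50 mM HEPES pH 7.5, 10 mM MgCl2, 1 mM EGTA, 0.01% Brij-35 (3% DMSO final). Kinase Tracer 222 (20 nM) was then added for 1 h at room temperature. IC50 came from nonlinear regression of percent of control; percent inhibition was also given at 1.0 and 10.0 μM.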

Chain of HPK1 (MAP4K1) (Q92918 whole entry): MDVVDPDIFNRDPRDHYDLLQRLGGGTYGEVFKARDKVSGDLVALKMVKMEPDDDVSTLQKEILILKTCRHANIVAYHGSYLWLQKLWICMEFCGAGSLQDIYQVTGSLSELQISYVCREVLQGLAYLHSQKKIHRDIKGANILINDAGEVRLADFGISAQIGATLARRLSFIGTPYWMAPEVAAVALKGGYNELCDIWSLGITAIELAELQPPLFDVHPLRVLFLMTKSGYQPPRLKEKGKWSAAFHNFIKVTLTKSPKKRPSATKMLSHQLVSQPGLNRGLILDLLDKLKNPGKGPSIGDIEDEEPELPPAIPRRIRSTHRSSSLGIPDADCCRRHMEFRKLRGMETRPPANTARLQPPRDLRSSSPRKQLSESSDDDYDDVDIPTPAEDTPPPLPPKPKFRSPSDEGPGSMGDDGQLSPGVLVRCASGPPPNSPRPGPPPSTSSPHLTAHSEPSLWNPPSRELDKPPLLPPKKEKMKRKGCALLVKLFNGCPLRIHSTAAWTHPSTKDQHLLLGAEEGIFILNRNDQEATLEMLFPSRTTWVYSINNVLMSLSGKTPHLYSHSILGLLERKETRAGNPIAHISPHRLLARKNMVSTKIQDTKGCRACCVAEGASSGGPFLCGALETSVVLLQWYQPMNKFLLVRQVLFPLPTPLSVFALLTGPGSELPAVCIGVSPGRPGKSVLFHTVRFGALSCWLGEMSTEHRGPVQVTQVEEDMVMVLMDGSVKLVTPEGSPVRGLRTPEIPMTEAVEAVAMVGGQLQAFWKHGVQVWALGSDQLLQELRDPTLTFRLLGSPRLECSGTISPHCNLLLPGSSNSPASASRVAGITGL

inhibition at 1 µM: 79.3%
inhibition at 10 µM: 71.8%
IC50: < 50 nM
Structure (SMILES): C/C(Nc1cnn(CC[C@@H](C)O)c1)=C1/C(=O)Nc2cnc(-c3cnccc3C)cc21 [Example 165, (R,Z)-3-(1-((1-(3-Hydroxybutyl)-1H-pyrazol-4-yl)amino)ethylidene)-5-(4-methylpyridin-3-yl)-1H-pyrrolo[2,3-c]pyridin-2(3H)-one]

inhibition at 1 µM: 62.9%
inhibition at 10 µM: 75.7%
IC50: < 50 nM
Structure (SMILES): C/C(Nc1cnn(CCC(C)(C)O)c1)=C1/C(=O)Nc2cnc(-c3cnccc3C)cc21 [Example 166, (Z)-3-(1-((1-(3-Hydroxy-3-methylbutyl)-1H-pyrazol-4-yl)amino)ethylidene)-5-(4-methylpyridin-3-yl)-1H-pyrrolo[2,3-c]pyridin-2(3H)-one]

inhibition at 1 µM: 69.2%
inhibition at 10 µM: 67.5%
IC50: < 50 nM
Structure (SMILES): C/C(Nc1cnn([C@@H](C)C#N)c1)=C1/C(=O)Nc2cnc(-c3cnccc3C)cc21 [Example 167, (S,Z)-2-(4-((1-(5-(4-Methylpyridin-3-yl)-2-oxo-1H-pyrrolo[2,3-c]pyridin-3(2H)-ylidene)ethyl)amino)-1H-pyrazol-1-yl)propanenitrile]

inhibition at 1 µM: 67.6%
inhibition at 10 µM: 76.7%
IC50: < 50 nM
Structure (SMILES): C/C(Nc1ccn(CC2(O)CC2)n1)=C1/C(=O)Nc2cnc(-c3cnccc3C)cc21 [Example 168, (Z)-3-(1-((1-((1-Hydroxycyclopropyl)methyl)-1H-pyrazol-3-yl)amino)ethylidene)-5-(4-methylpyridin-3-yl)-1H-pyrrolo[2,3-c]pyridin-2(3H)-one]

inhibition at 1 µM: 71.4%
inhibition at 10 µM: 84.3%
IC50: < 50 nM
Structure (SMILES): C/C(Nc1ccn(CC[C@@H](C)O)n1)=C1/C(=O)Nc2cnc(-c3cnccc3C)cc21 [Example 169, (R,Z)-3-(1-((1-(3-Hydroxybutyl)-1H-pyrazol-3-yl)amino)ethylidene)-5-(4-methylpyridin-3-yl)-1H-pyrrolo[2,3-c]pyridin-2(3H)-one]

Further lines, the compound ahead of its results:

Structure (SMILES): C/C(Nc1cnn(C)c1)=C1/C(=O)Nc2cccc(-c3cnccc3C)c21 [Example 159, (Z)-3-(1-((1-Methyl-1H-pyrazol-4-yl)amino)ethylidene)-4-(4-methylpyridin-3-yl)indolin-2-one]
inhibition at 1 µM: 62.8%
inhibition at 10 µM: 87.4%
IC50: > 500 nM

Structure (SMILES): C/C(Nc1cnn([C@H](C)C#N)c1)=C1/C(=O)Nc2cnc(-c3cnccc3C)cc21 [Example 160, (R,Z)-2-(4-((1-(5-(4-Methylpyridin-3-yl)-2-oxo-1H-pyrrolo[2,3-c]pyridin-3(2H)-ylidene)ethyl)amino)-1H-pyrazol-1-yl)propanenitrile]
inhibition at 1 µM: 85%
inhibition at 10 µM: 78.4%
IC50: < 50 nM

Structure (SMILES): C/C(Nc1cnn(C)c1)=C1/C(=O)Nc2ccc(-c3cnccc3C)cc21 [Example 161, (Z)-3-(1-((1-Methyl-1H-pyrazol-4-yl)amino)ethylidene)-5-(4-methylpyridin-3-yl)indolin-2-one]
inhibition at 1 µM: 81.2%
inhibition at 10 µM: 81%
IC50: < 50 nM

Structure (SMILES): C/C(Nc1ccn(C)n1)=C1/C(=O)Nc2cnc(-c3cccnc3C)cc21 [Example 162, (Z)-3-(1-((1-Methyl-1H-pyrazol-3-yl)amino)ethylidene)-5-(2-methylpyridin-3-yl)-1H-pyrrolo[2,3-c]pyridin-2(3H)-one]
inhibition at 1 µM: 76.2%
inhibition at 10 µM: 92.9%
IC50: 50 to 100 nM

Structure (SMILES): C/C(Nc1ncn(C)n1)=C1/C(=O)Nc2cnc(-c3cnccc3C)cc21 [Example 163, (Z)-3-(1-((1-Methyl-1H-1,2,4-triazol-3-yl)amino)ethylidene)-5-(4-methylpyridin-3-yl)-1H-pyrrolo[2,3-c]pyridin-2(3H)-one]
inhibition at 1 µM: 77.3%
inhibition at 10 µM: 81.5%
IC50: < 50 nM

Structure (SMILES): C/C(Nc1cnn(C)c1)=C1/C(=O)Nc2cnc(-c3c(C)cccc3F)cc21 [Example 164, (Z)-5-(2-Fluoro-6-methylphenyl)-3-(1-((1-methyl-1H-pyrazol-4-yl)amino)ethylidene)-1H-pyrrolo[2,3-c]pyridin-2(3H)-one]
inhibition at 1 µM: 60.9%
inhibition at 10 µM: 75.2%
IC50: 50 to 100 nM
